Measurements taken from patent publication US20090005369A1, “Oxazolidinone Compounds and Compositions and Methods Related Thereto” (priority 2004, published 2009).
≈ marks a conversion by molar mass, not a printed value.

Tests used:
[1] = tested on: S. pneumoniae ATCC 49619 PR 215; experiment: MIC by standard microdilution (NCCLS M7-A5); type: cell-based; conditions: Streptococcus pneumoniae, ATCC49619, read-out: In vitro activities against bacteria, MIC
human MAO-A = molecular target: T1, human MAO-A (Homo sapiens, UniProt P21397); experiment: In vitro MAO-A enzymatic activity (kynuramine substrate, fluorescence); type: biochemical; conditions: membranes from SF9 cells, kynuramine 30 μM, read-out: Inhibitory activity of human MAO, Ki
T1 construct: purchased Gentest, BD, USA; host or cells: SF9 insect cells (membranes)
T1 sequence (P21397 1-527): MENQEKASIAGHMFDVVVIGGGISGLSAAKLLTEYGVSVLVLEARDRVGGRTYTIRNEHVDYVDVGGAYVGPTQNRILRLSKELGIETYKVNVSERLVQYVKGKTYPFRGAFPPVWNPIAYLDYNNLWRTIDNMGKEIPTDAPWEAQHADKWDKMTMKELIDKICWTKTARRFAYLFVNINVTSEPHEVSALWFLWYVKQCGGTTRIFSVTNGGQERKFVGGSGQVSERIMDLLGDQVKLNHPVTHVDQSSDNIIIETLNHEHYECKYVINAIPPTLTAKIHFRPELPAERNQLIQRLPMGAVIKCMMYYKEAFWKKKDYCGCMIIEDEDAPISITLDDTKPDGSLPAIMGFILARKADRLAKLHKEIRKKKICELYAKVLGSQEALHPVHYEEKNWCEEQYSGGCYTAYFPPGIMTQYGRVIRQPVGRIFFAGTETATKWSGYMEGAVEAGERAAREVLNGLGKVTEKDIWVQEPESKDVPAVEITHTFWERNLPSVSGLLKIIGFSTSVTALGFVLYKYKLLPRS

[2] = tested on: E. faecalis ATCC 51575 MDR 311; experiment: MIC by standard microdilution (NCCLS M7-A5); type: cell-based; conditions: Enterococcus faecalis, ATCC51575, read-out: In vitro activities against bacteria, MIC
human MAO-B = molecular target: T2, human MAO-B (Homo sapiens, UniProt P27338); experiment: In vitro MAO-B enzymatic activity (kynuramine substrate, fluorescence); type: biochemical; conditions: membranes from SF9 cells, kynuramine 30 μM, read-out: Inhibitory activity of human MAO, Ki
T2 construct: purchased Gentest, BD, USA; host or cells: SF9 insect cells (membranes)
T2 sequence (P27338 1-520): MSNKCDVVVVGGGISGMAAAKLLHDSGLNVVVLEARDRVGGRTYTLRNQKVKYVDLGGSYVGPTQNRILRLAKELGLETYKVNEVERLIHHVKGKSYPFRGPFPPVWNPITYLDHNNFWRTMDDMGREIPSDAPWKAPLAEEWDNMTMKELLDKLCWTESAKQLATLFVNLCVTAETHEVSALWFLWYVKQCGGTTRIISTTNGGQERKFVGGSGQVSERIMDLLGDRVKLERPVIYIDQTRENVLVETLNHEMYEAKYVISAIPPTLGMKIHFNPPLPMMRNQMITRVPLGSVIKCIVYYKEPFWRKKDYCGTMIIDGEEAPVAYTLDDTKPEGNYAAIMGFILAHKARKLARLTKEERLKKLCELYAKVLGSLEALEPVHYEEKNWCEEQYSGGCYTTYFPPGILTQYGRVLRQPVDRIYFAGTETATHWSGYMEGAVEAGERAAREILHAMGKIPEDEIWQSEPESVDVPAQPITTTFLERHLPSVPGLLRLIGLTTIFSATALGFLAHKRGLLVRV

[3] = tested on: E. faecium ATCC 51559 MDR 312; experiment: MIC by standard microdilution (NCCLS M7-A5); type: cell-based; conditions: Enterococcus faecium, ATCC51559, read-out: In vitro activities against bacteria, MIC
[4] = tested on: S. aureus ATCC 25923 MS 319; experiment: MIC by standard microdilution (NCCLS M7-A5); type: cell-based; conditions: Staphylococcus aureus, ATCC25923, read-out: In vitro activities against bacteria, MIC
[5] = tested on: E. faecalis ATCC 29212 53; experiment: MIC by standard microdilution (NCCLS M7-A5); type: cell-based; conditions: Enterococcus faecalis, ATCC29212, read-out: In vitro activities against bacteria, MIC
[6] = tested on: Moraxella catarrhalis HCl-78 259/339; experiment: MIC by standard microdilution (NCCLS M7-A5); type: cell-based; conditions: HCL78259/339, read-out: In vitro activities against bacteria, MIC
[7] = tested on: S. aureus ATCC 43300 MR 214; experiment: MIC by standard microdilution (NCCLS M7-A5); type: cell-based; conditions: Staphylococcus aureus, ATCC43300, read-out: In vitro activities against bacteria, MIC
[8] = tested on: S. epidermidis ATCC 12228 MR 11; experiment: microbe, parasite or virus in culture; type: cell-based; conditions: Staphylococcus epidermidis, ATCC12228, read-out: In vitro activities against bacteria, MIC
[9] = tested on: Moxarella, Pasteurella and Bacteroides spp.; conditions: background statement; cited from earlier work

SMILES	MIC [1]	Ki (human MAO-A)	MIC [2]	Ki (human MAO-B)	MIC [3]	MIC [4]	MIC [5]	MIC [6]	MIC [7]	MIC [8]	MICs [9]
O=C1O[C@@H](CNC(=S)c2ccco2)CN1c1ccc(N2CCOCC2)c(F)c1 [Example 2, N-[[(5S)-3-[3-fluoro-4-(4-morpholinyl)-phenyl]-2-oxo-5-oxazolidinyl]methyl]furan-2-yl-thioamide]	2 µg/mL (≈ 4.93 µM)	170 µM	2 µg/mL (≈ 4.93 µM)	5.3 µM	1 µg/mL (≈ 2.47 µM)	8 µg/mL (≈ 19.7 µM)	2 µg/mL (≈ 4.93 µM)	2 µg/mL (≈ 4.93 µM)	2 µg/mL (≈ 4.93 µM)		
O=C1O[C@@H](CNC(=S)c2ccoc2)CN1c1ccc(N2CCOCC2)c(F)c1 [Example 4, N-[[(5S)-3-[3-fluoro-4-(4-morpholinyl)-phenyl]-2-oxo-5-oxazolidinyl]methyl]furan-3-yl-thioamide]	1 µg/mL (≈ 2.47 µM)	≥ 250 µM	1 µg/mL (≈ 2.47 µM)	2.4 µM	2 µg/mL (≈ 4.93 µM)	1 µg/mL (≈ 2.47 µM)	1 µg/mL (≈ 2.47 µM)	1 µg/mL (≈ 2.47 µM)	1 µg/mL (≈ 2.47 µM)	1 µg/mL (≈ 2.47 µM)	
CC(=S)N1CCN(c2ccc(N3C[C@H](CNC(=S)c4ccoc4)OC3=O)cc2F)CC1 [Example 7, N-[[(5S)-3-[3-fluoro-4-(4′-thioacetyl-4-piperazinyl)-phenyl]-2-oxo-5-oxazolidinyl]methyl]furan-3-yl-thioamide]	0.5 µg/mL (≈ 1.08 µM)	≥ 200 µM	0.06 µg/mL (≈ 0.13 µM)	2.8 µM	0.5 µg/mL (≈ 1.08 µM)	0.5 µg/mL (≈ 1.08 µM)	0.13 µg/mL (≈ 0.281 µM)	0.25 µg/mL (≈ 0.54 µM)	0.5 µg/mL (≈ 1.08 µM)	0.5 µg/mL (≈ 1.08 µM)	
O=C1O[C@@H](CNC(=S)c2ccco2)CN1c1ccc(N2CCSCC2)c(F)c1 [Example 9, N-[[(5S)-3-[3-fluoro-4-(4-thiomorpholinyl)-phenyl]-2-oxo-5-oxazolidinyl]methyl]furan-2-yl-thioamide]	4 µg/mL (≈ 9.49 µM)	47.5 µM	2 µg/mL (≈ 4.74 µM)	1 µM	8 µg/mL (≈ 19 µM)	2 µg/mL (≈ 4.74 µM)	2 µg/mL (≈ 4.74 µM)		4 µg/mL (≈ 9.49 µM)	4 µg/mL (≈ 9.49 µM)	
O=C1O[C@@H](CNC(=S)c2ccoc2)CN1c1ccc(N2CCSCC2)c(F)c1 [Example 11, N-[[(5S)-3-[3-fluoro-4-(4-thiomorpholinyl)-phenyl]-2-oxo-5-oxazolidinyl]methyl]furan-3-yl-thioamide]	1 µg/mL (≈ 2.37 µM)	≥ 250 µM	1 µg/mL (≈ 2.37 µM)	0.6 µM	1 µg/mL (≈ 2.37 µM)	2 µg/mL (≈ 4.74 µM)	1 µg/mL (≈ 2.37 µM)	4 µg/mL (≈ 9.49 µM)	1 µg/mL (≈ 2.37 µM)	1 µg/mL (≈ 2.37 µM)	
CC(=O)NC[C@H]1CN(c2ccc(N3CCOCC3)c(F)c2)C(=O)O1 [Linezolid, N-[[(5S)-3-[3-Fluoro-4-(4-morpholinyl)phenyl]-2-oxo-5-oxazolidinyl]methyl]acetamide, reference compound]	2 µg/mL (≈ 5.93 µM)	7 µM	0.5 µg/mL (≈ 1.48 µM)	0.48 µM	1 µg/mL (≈ 2.96 µM)	2 µg/mL (≈ 5.93 µM)	0.5 µg/mL (≈ 1.48 µM)	2 µg/mL (≈ 5.93 µM)	1 µg/mL (≈ 2.96 µM)	1 µg/mL (≈ 2.96 µM)	2 to 8 µg/mL
